Experimental data as given in patent US7842684B2, “Diphenylazetidinone derivatives possessing cholesterol absorption inhibitor activity” (AstraZeneca AB, priority 2006, dated 2010).

Columns and labels:
[1] = Absorption in a Caco-2 cells model; type: in vitro ADME; conditions: human
Protocol: Absorption of the compounds of formula (I) was tested in a Caco-2 cells model (Gastroenterology 1989, 96, 736): […]

[2] = system: 14C-cholesterol absorption; experiment: In Vivo Testing of Cholesterol Absorption Inhibitors (A); conditions: 0.2 μmol/kg by gavage, procedure A, C57BL/6 female mice
Protocol: In Vivo Testing of Cholesterol Absorption Inhibitors (A)
C57BL/6 female mice were maintained on regular chow diet and housed in individual cages to collect faeces. Mice were fasted for 3 hours and then gavaged with vehicle or compound. Half an hour later the mice were gavaged with radiolabelled cholesterol. Six hours after the ^14C-cholesterol gavage blood samples were taken via the tail and plasma prepared to determine how much cholesterol were absorbed. 24 hours after the gavage of ^14C-cholesterol the mice were bled and plasma were prepared for analysis. Faeces were collected for 24 hours to assess absorption efficiency.

| Papp [1] [×10⁻⁶ cm/s] | SMILES | inhibition of 14C-cholesterol absorption [2] [%] |
| --- | --- | --- |
| 0.02 | CC(C)[C@@H](NC(=O)CNC(=O)COc1ccc([C@@H]2[C@@H](SC[C@H](O)c3ccc(F)cc3)C(=O)N2c2ccc(C#CCNS(C)(=O)=O)cc2)cc1)C(=O)O [Example 2, N-({4-[(2R,3R)-3-{[(2R)-2-(4-fluorophenyl)-2-hydroxyethyl]thio}-1-(4-{3-[(methylsulfonyl)amino]prop-1-yn-1-yl}phenyl)-4-oxoazetidin-2-yl]phenoxy}acetyl)glycyl-D-valine] | – |
| 0.04 | CS(=O)(=O)NCC#Cc1ccc(N2C(=O)[C@H](SC[C@H](O)c3ccc(F)cc3)[C@H]2c2ccc(OCC(=O)NCC(=O)N[C@H](CC3CCCCC3)C(=O)O)cc2)cc1 [Example 1, N-({4-[(2R,3R)-3-{[(2R)-2-(4-fluorophenyl)-2-hydroxyethyl]thio}-1-(4-{3-[(methylsulfonyl)amino]prop-1-yn-1-yl}phenyl)-4-oxoazetidin-2-yl]phenoxy}acetyl)glycyl-3-cyclohexyl-D-alanine] | – |
| – | CS(=O)(=O)NCC#Cc1ccc(N2C(=O)[C@H](SC[C@H](O)c3ccc(F)cc3)[C@H]2c2ccc(OCC(=O)NCC(=O)O)cc2)cc1 [Example 6, N-({4-[(2R,3R)-3-{[(2R)-2-(4-fluorophenyl)-2-hydroxyethyl]thio}-1-(4-{3-[(methylsulfonyl)amino]prop-1-yn-1-yl}phenyl)-4-oxoazetidin-2-yl]phenoxy}acetyl)glycine] | 90 |
